# Source: ChEMBL document CHEMBL5608197, “Optimization of pyrazolopyridine 4-carboxamides with potent antimalarial activity for which resistance is associated with the P. falciparum transporter ABCI3” (Eur J Med Chem, 2024)
# The source made the active and inactive calls. No cut-off for these calls is given here.
# Tests used:
# Plasmodium falciparum [1] = experiment: Antiplasmodial activity against multidrug-resistant Plasmodium falciparum Dd2 harboring DHODH-C276F mutant infected in erythrocytes assessed as inhibition of parasite growth incubated for 72 hrs by [3H]hypoxanthine incorporation based microbeta counting analysis; type: functional, organism-based; details: Dd2, Erythrocyte
# Plasmodium falciparum [2] = experiment: Antiplasmodial activity against multidrug-resistant Plasmodium falciparum Dd2 harboring PI4K-S743F mutant infected in erythrocytes assessed as inhibition of parasite growth incubated for 72 hrs by [3H]hypoxanthine incorporation based microbeta counting analysis; type: functional, organism-based; details: Dd2, Erythrocyte
# Plasmodium falciparum [3] = experiment: Antimalarial activity against asexual stage of Plasmodium falciparum 3D7 infected in erythrocytes assessed as lag phase of parasite growth at 10XEC50 incubated for 24 hrs followed by drug removal and incubation for 48 hrs with CFDA-SE labelled fresh erythrocytes by Hoechst 33342 staining based two-color flow cytometry; type: functional, organism-based; details: Erythrocyte
# Plasmodium falciparum [4] = experiment: Antiplasmodial activity against multidrug-resistant Plasmodium falciparum 7G8 infected in erythrocytes assessed as inhibition of parasite growth incubated for 72 hrs by [3H]hypoxanthine incorporation based microbeta counting analysis; type: functional, organism-based; details: 7G8, Erythrocyte
# [5] = Cytotoxicity against human HepG2 cells assessed as inhibition of cell growth incubated for 48 hrs by CellTiter-Glo luminescence assay; type: toxicity, cell-based
# [6] = Aqueous solubility of the compound in PBS buffer at pH 7.4 at 200 uM incubated for 2 hrs under shaking condition by miniaturized shake flask method; type: physicochemical
# Plasmodium falciparum [7] = experiment: Antiplasmodial activity against multidrig-resistant Plasmodium falciparum Dd2 harboring eEF2Y-I86N mutant infected in erythrocytes assessed as inhibition of parasite growth incubated for 72 hrs by [3H]hypoxanthine incorporation based microbeta counting analysis; type: functional, organism-based; details: Dd2, Erythrocyte
# Plasmodium falciparum [8] = experiment: Antiplasmodial activity against multidrug-resistant Plasmodium falciparum TM90-C2B infected in erythrocytes assessed as inhibition of parasite growth incubated for 72 hrs by [3H]hypoxanthine incorporation based microbeta counting analysis; type: functional, organism-based; details: Erythrocyte
# Plasmodium falciparum [9] = experiment: Antiplasmodial activity against ring stage of Plasmodium falciparum 3D7 expressing ABCI3-HAreg assessed as inhibition of parasite proliferation incubated for 72 hrs in presence of ABCI3 inhibitor, GlcN by SYBR dye based flow cytometry; type: functional, organism-based; details: 3D7, 72 h
# Plasmodium falciparum [10] = experiment: Antiplasmodial activity against multidrug-resistant Plasmodium falciparum Dd2 harboring CARL-I1139K mutant infected in erythrocytes assessed as inhibition of parasite growth incubated for 72 hrs by [3H]hypoxanthine incorporation based microbeta counting analysis; type: functional, organism-based; details: Dd2, Erythrocyte
# [11] = Ratio of EC50 for antiplasmodial activity against ring stage of Plasmodium falciparum 3D7 expressing ABCI3-HAreg in absence of ABCI3 inhibitor, GlcN to EC50 for antiplasmodial activity against ring stage of Plasmodium falciparum 3D7 expressing ABCI3-HAreg in presence of ABCI3 inhibitor, GlcN; type: functional
# Plasmodium falciparum [12] = experiment: Antimalarial activity against asexual stage of Plasmodium falciparum 3D7 infected in erythrocytes assessed as parasite killing at 10XEC50 incubated for 48 hrs with compound renewal for every 24 hrs followed by drug removal and incubation for 48 hrs with CFDA-SE labelled fresh erythrocytes by Hoechst 33342 staining based two-color flow cytometry; type: functional, organism-based; details: Erythrocyte
# Plasmodium falciparum [13] = experiment: Antiplasmodial activity against multidrug-resistant Plasmodium falciparum Dd2 harboring cyt b-I22L mutant infected in erythrocytes assessed as inhibition of parasite growth incubated for 72 hrs by [3H]hypoxanthine incorporation based microbeta counting analysis; type: functional, organism-based; details: Dd2, Erythrocyte
# Plasmodium falciparum [14] = experiment: Antiplasmodial activity against ring stage of Plasmodium falciparum 3D7 expressing ABCI3-HAreg assessed as inhibition of parasite proliferation incubated for 72 hrs in absence of ABCI3 inhibitor, GlcN by SYBR dye based flow cytometry; type: functional, organism-based; details: 3D7, 72 h
# [15] = Lipophilicity, elogD of the compound in 1-Octanol/PBS at pH 7.4 at 7.5 uM incubated for 2 hrs by miniaturized shake flask method; type: physicochemical
# [16] = Intrinsic clearance in rat hepatocytes at 1 uM measured per million cells for 90 mins by LC-MS/MS analysis; type: ADME, cell-based, Hepatocyte; details: read-out: CLH
# Plasmodium falciparum [17] = experiment: Antiplasmodial activity against multidrug-resistant Plasmodium falciparum K1 infected in erythrocytes assessed as inhibition of parasite growth incubated for 72 hrs by [3H]hypoxanthine incorporation based microbeta counting analysis; type: functional, organism-based; details: K1, Erythrocyte
# Plasmodium falciparum [18] = experiment: Antiplasmodial activity against multidrug-resistant Plasmodium falciparum NF54 infected in erythrocytes assessed as inhibition of parasite growth incubated for 72 hrs by [3H]hypoxanthine incorporation based microbeta counting analysis; type: functional, organism-based; details: NF54, Erythrocyte
# Plasmodium falciparum [19] = experiment: Antiplasmodial activity against asexual blood stage of Plasmodium falciparum 3D7 assessed as inhibition of parasite growth incubated for 72 hrs by LDH assay; type: functional, organism-based; details: 3D7, 72 h
# Plasmodium falciparum [20] = experiment: Antiplasmodial activity against Plasmodium falciparum Dd2 infected in erythrocytes assessed as inhibition of parasite growth incubated for 72 hrs by [3H]hypoxanthine incorporation based microbeta counting analysis; type: functional, organism-based; details: Dd2, Erythrocyte
# Plasmodium falciparum [21] = experiment: Antiplasmodial activity against multidrug-resistant Plasmodium falciparum Cam3.1 infected in erythrocytes assessed as inhibition of parasite growth incubated for 72 hrs by [3H]hypoxanthine incorporation based microbeta counting analysis; type: functional, organism-based; details: Cam3.1, Erythrocyte
# [22] = Intrinsic clearance in human liver microsomes at 1 uM measured for 60 mins by LC-MS/MS analysis; type: ADME, Microsome; details: read-out: CLH
# [23] = Toxicity in Balb/c mouse infected with asexual blood stage of Plasmodium berghei ANKA assessed as body weight at 25 mg/kg, po qd administered at 2 hrs post-infection on day 0 and then on days 1,2 and 3; type: organism-based; details: in vivo, 96 h, time 4 day
# Plasmodium berghei [24] = experiment: Antimalarial activity against asexual blood stage of Plasmodium berghei ANKA infected in Balb/c mouse assessed as reduction in parasitemia at 25 mg/kg, po qd administered at 2 hrs post-infection on day 0 and then on days 1,2 and 3 post-infection and measured on day 2 to 4 post-infection; type: functional, organism-based; details: time 3-5 day
# [25] = Intrinsic clearance in mouse liver microsomes at 1 uM measured for 60 mins by LC-MS/MS analysis; type: ADME, Microsome; details: read-out: CLH
# Plasmodium berghei [26] = experiment: Antimalarial activity against asexual blood stage of Plasmodium berghei ANKA infected in Balb/c mouse assessed as reduction in parasitemia at 25 mg/kg, po qd administered at 2 hrs post-infection on day 0 and then on days 1,2 and 3 post-infection and measured on day 5 to 7 post-infection by peter's test relative to control; type: functional; details: time 6-8 day
# [27] = Toxicity in Balb/c mouse infected with asexual blood stage of Plasmodium berghei ANKA assessed as adverse effects at 25 mg/kg, po administered at 2 hrs post-infection on day 0 and then on days 1,2 and 3; type: organism-based; details: in vivo, 96 h, time 4 day
# Plasmodium berghei [28] = experiment: Antimalarial activity against asexual blood stage of Plasmodium berghei ANKA infected in Balb/c mouse assessed as reduction in parasitemia at 30 mg/kg, po qd administered at 2 hrs post-infection on day 0 and then on days 1,2 and 3 post-infection and measured on day 2 to 4 post-infection; type: functional, organism-based; details: time 3-5 day
# Plasmodium berghei [29] = experiment: Antimalarial activity against asexual blood stage of Plasmodium berghei ANKA infected in Balb/c mouse assessed as reduction in parasitemia at 30 mg/kg, po qd administered at 2 hrs post-infection on day 0 and then on days 1,2 and 3 post-infection and measured on day 4 to 7 post-infection by peter's test; type: functional, organism-based; details: time 5-8 day
structure (smiles),measurement,setting,value
Cc1nn(C(C)(C)C)c2nc(C3CC3)cc(C(=O)N3CCOc4ccccc43)c12,EC50,Plasmodium falciparum [1],105 nM
same,EC50,Plasmodium falciparum [2],101 nM
same,Activity,Plasmodium falciparum [3],Active
same,EC50,Plasmodium falciparum [4],114 nM
same,CC50 at 48 h,[5],> 40000 nM
same,"solubility thermodynamic at 2 h, 200 µM",[6],< 2.5 µM
same,EC50,Plasmodium falciparum [7],104 nM
same,EC50,Plasmodium falciparum [8],119 nM
same,EC50,Plasmodium falciparum [9],13.9 nM
same,EC50,Plasmodium falciparum [10],79 nM
same,Ratio EC50,[11],3.4
same,Activity,Plasmodium falciparum [12],Active
same,EC50,Plasmodium falciparum [13],91 nM
same,EC50,Plasmodium falciparum [14],47.6 nM
same,"logD at 2 h, 7.5 µM",[15],5.4
same,hepatocyte CLint at 1 µM,[16],49 µL/min/1e6 cells
same,EC50,Plasmodium falciparum [17],134 nM
same,EC50,Plasmodium falciparum [18],46 nM
same,EC50,Plasmodium falciparum [19],130 nM
same,EC50,Plasmodium falciparum [20],88 nM
same,EC50,Plasmodium falciparum [21],89 nM
same,microsomal CLint at 1 µM,[22],206 µL/min/mg
Cc1nn(C(C)C)c2nc(C3CC3)cc(C(=O)N3CCOc4ccncc43)c12,Activity,[23],Non-Toxic
same,CC50 at 48 h,[5],17600 nM
same,"solubility thermodynamic at 2 h, 200 µM",[6],199 µM
same,Activity,Plasmodium berghei [24],inactive
same,microsomal CLint at 1 µM,[25],323 µL/min/mg
same,"logD at 2 h, 7.5 µM",[15],4.5
same,hepatocyte CLint at 1 µM,[16],30 µL/min/1e6 cells
same,EC50,Plasmodium falciparum [19],19 nM
same,inhibition in vivo at 25 mg/kg,Plasmodium berghei [26],~50%
same,Activity,[27],Non-Toxic
same,microsomal CLint at 1 µM,[22],27 µL/min/mg
C[C@H]1[C@H](OC(=O)CCC(=O)O)O[C@@H]2O[C@@]3(C)CC[C@H]4[C@H](C)CC[C@@H]1[C@@]24OO3,Activity,Plasmodium berghei [28],Active
same,Activity,Plasmodium berghei [29],inactive
